The results in this text go back to ChEMBL document CHEMBL4627376, “Substituted benzyloxytricyclic compounds as retinoic acid-related orphan receptor gamma t (RORγt) agonists” (Bioorg Med Chem Lett, 2020).

A short description of data set [1]: Cmax in C57BL6 mouse at 30 mg/kg, po qd via gavage after 24 hrs by LC-MS/MS analysis. In kind it is ADME, organism-based. Also on record: dose 30 mg/kg, route oral. The conditions noted are these: in vivo.
Data set [2] can be described thus: Stability in mouse liver microsomes assessed as parent compound remaining at 0.5 uM in presence of NADPH by MS/MS analysis. In kind it is ADME, Microsome. Conditions: read-out: Stability.
Data set [3] in a line: Stability in rat liver microsomes assessed as parent compound remaining at 0.5 uM in presence of NADPH by MS/MS analysis. The data set is classed as ADME, Microsome. The conditions noted are these: read-out: Stability. (Microsomes from liver hold many membrane-bound enzymes, among them those of drug oxidation.)
The nature of data set [4]: Tmax in C57BL6 mouse at 30 mg/kg, po qd via gavage after 24 hrs by LC-MS/MS analysis. The data set is classed as ADME, organism-based. Conditions: in vivo.
The nature of data set [5]: Clearance in C57BL6 mouse at 2 mg/kg, iv qd administered as bolus dose after 24 hrs by LC-MS/MS analysis. In kind it is ADME, organism-based. Conditions: in vivo.
Data set [6] can be described thus: AUC in C57BL6 mouse at 2 mg/kg, iv qd administered as bolus dose after 24 hrs by LC-MS/MS analysis. The conditions noted are these: in vivo. In kind it is ADME, organism-based. Also on record: time < 24 hr, dose 2 mg/kg, route intravenous.
Data set [7] is described as follows: Volume of distribution at steady state in C57BL6 mouse at 2 mg/kg, iv qd administered as bolus dose after 24 hrs by LC-MS/MS analysis. In kind it is ADME, organism-based. The conditions noted are these: in vivo, read-out: Vdss.
The nature of data set [8]: AUC in C57BL6 mouse at 30 mg/kg, po qd via gavage after 24 hrs by LC-MS/MS analysis. Also on record: time < 24 hr, dose 30 mg/kg, route oral. In kind it is ADME, organism-based. Conditions: in vivo.
Data set [9] in a line: Half life in mouse hepatocytes. The data set is classed as ADME, cell-based, Hepatocyte.
Data set [10] in a line: Permeability of compound at pH 7.4. The data set is classed as ADME. The conditions noted are these: not told, read-out: permeability.
Data set [11] in a line: Drug metabolism in mouse hepatocytes assessed as UGT-mediated metabolism by measuring half life. In kind it is ADME, cell-based.
The nature of data set [12]: Stability in human liver microsomes assessed as parent compound remaining at 0.5 uM in presence of NADPH by MS/MS analysis. The data set is classed as ADME, Microsome. The conditions noted are these: read-out: Stability.
A short description of data set [13]: Drug level in mouse MC38 cells allografted C57BL6 mouse blood at 10 mg/kg, po BID and measured after 24 hrs. The data set is classed as ADME, organism-based. Conditions: whole blood, read-out: Drug uptake.
Data set [14] addresses T1, Nuclear receptor ROR-gamma (Mus musculus, UniProt P51450).
T1 sequence (P51450 whole entry): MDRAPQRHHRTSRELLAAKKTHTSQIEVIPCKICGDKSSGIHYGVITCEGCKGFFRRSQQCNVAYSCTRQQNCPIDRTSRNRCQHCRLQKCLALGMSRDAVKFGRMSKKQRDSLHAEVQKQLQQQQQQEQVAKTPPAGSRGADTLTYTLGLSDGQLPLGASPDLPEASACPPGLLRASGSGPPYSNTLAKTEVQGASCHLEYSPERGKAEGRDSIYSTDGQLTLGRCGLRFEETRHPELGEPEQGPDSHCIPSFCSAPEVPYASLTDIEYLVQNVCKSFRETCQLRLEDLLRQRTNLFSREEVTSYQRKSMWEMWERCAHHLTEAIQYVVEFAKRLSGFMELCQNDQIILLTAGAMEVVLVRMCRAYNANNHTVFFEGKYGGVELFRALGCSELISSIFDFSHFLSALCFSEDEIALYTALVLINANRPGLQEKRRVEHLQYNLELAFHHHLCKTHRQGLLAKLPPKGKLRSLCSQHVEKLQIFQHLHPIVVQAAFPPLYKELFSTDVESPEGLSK
Nature of the data set: Agonist activity at RORgammat in mouse whole blood assessed as induction of IL-17A expression. The data set is classed as tissue-based.

What is called Cmax is the highest concentration seen after dosing. For orientation: Tmax means the time at which the peak concentration occurs. By clearance is commonly meant the rate of elimination divided by the concentration. The low end stands for a low capacity for elimination, the high end for a high capacity for elimination. Broadly, the AUC is concentration integrated over time. A low value points to less exposure. Broadly, the half-life is how long it takes for the measured level to halve. The EC50 is the concentration giving half of the maximal effect.

`O=C(O)[C@H]1CC[C@H](C(=O)N2CC[C@@]3(S(=O)(=O)c4ccc(F)cc4)c4ccc(OCc5c(F)cccc5C(F)(F)F)cc4CC[C@@H]23)CC1` returned a Cmax in data set [1] of 38 µM. In addition, the values for the remaining at 0.5 µM in data set [2], in data set [3] and in data set [12] were 100%, 65% and 97%, respectively. In addition, the Tmax in [4] is 1 h. In addition, the clearance in data set [5] stood at 9.1 mL/min/kg. Also, the results for the area under the curve (AUC) at 24 h in data set [6] and in data set [8] were 5.4 µM·h and 103 µM·h, respectively. In addition, in data set [7], the Vd is 1.8 L/kg. For the same compound, the half-life in [9] and in data set [11] was above 2 h in each case. Moreover, the Papp in [10] was 10.1 ×10⁻⁶ cm/s.

In the case of `CS(=O)(=O)N[C@H]1CC[C@H](C(=O)N2CC[C@@]3(S(=O)(=O)c4ccc(F)cc4)c4ccc(OCc5c(F)cccc5C(F)(F)F)cc4CC[C@@H]23)CC1`, the remaining at 0.5 µM in [2] worked out at 41%; in [3] it was 30%; in data set [12], 2%.

Regarding `O=C(N1CC[C@@]2(S(=O)(=O)c3ccc(F)cc3)c3ccc(OCc4c(F)cccc4C(F)(F)F)cc3CC[C@@H]12)C1(O)CCS(=O)(=O)CC1`, the remaining at 0.5 µM is 51% in data set [2], 4% in data set [3] and 1% in data set [12].

The compound `C[C@]1(C(=O)N2CC[C@@]3(S(=O)(=O)c4ccc(F)cc4)c4ccc(OCc5c(F)cccc5C(F)(F)F)cc4CC[C@@H]23)CC[C@H](C(=O)O)CC1` had a Cmax in data set [1] of 61 µM. Moreover, the remaining at 0.5 µM in data set [2] was 100%; in data set [3], 48%; in [12] it was 80%. Besides, the time to peak (Tmax) in [4] came out at 0.5 h. In data set [5], this compound returned a clearance of 6.7 mL/min/kg. Further, the AUC at 24 h was found to be 6.5 µM·h in [6] and 275 µM·h in data set [8]. The Vd in data set [7] turned out to be 1.1 L/kg. In data set [13], the concentration at 24 h is 0.1 µM. Also, the Papp in data set [10] was determined as 40.6 ×10⁻⁶ cm/s. The EC50 in data set [14] was determined as 0.38 µM.

With `O=C([C@H]1CC[C@H](c2nnn[nH]2)CC1)N1CC[C@@]2(S(=O)(=O)c3ccc(F)cc3)c3ccc(OCc4c(F)cccc4C(F)(F)F)cc3CC[C@@H]12`, the remaining at 0.5 µM in data set [2] came to 82%; in data set [3] it was 67%; in data set [12], 55%.

Regarding `NC(=O)N1CCC(C(=O)N2CC[C@@]3(S(=O)(=O)c4ccc(F)cc4)c4ccc(OCc5c(F)cccc5C(F)(F)F)cc4CC[C@@H]23)CC1`, the remaining at 0.5 µM in data set [2] amounted to 57%; in data set [3] it was 33%; in [12] it was 3%.

Regarding `NC(=O)[C@H]1CC[C@H](C(=O)N2CC[C@@]3(S(=O)(=O)c4ccc(F)cc4)c4ccc(OCc5c(F)cccc5C(F)(F)F)cc4CC[C@@H]23)CC1`, the values for the remaining at 0.5 µM in data set [3] and in data set [12] were 39% and 17%, respectively.

`O=C(C1CCS(=O)(=O)CC1)N1CC[C@@]2(S(=O)(=O)c3ccc(F)cc3)c3ccc(OCc4c(F)cccc4C(F)(F)F)cc3CC[C@@H]12`: the values for the remaining at 0.5 µM in data set [2], in [3] and in [12] were 52%, 18% and 1%, respectively.

Take `O=C(CN1CCS(=O)(=O)CC1)N1CC[C@@]2(S(=O)(=O)c3ccc(F)cc3)c3ccc(OCc4c(F)cccc4C(F)(F)F)cc3CC[C@@H]12`: the results for the remaining at 0.5 µM in [2], in [3] and in data set [12] were 14%, 14% and 1%, respectively.
